Some test systems named below: ML-2; MV4-11; CHRF288-11; MOLM-13; CMS; M07e; CMK; U937.
Design in all cases: species or system AML cell lines (8); Primary HTS, single concentration about 10 uM, Cell Titer Glo viability; log10 luminescence, per cent inhibition relative to cycloheximide control
What all share (conditions): 72 h, relative to cycloheximide control, log10 luminescence, inhibitor
(ATP-based viability assays read luminescence as a measure of living cells.)

Consider 16 compounds from publication PMC6522510 (Nature Communications, 2019).

Where two headings read alike, the source gives them in different places.

In the case of `Cn1c(=O)c(Oc2ccc(F)cc2F)cc2cnc(NC(C)(C)CO)nc21` [SJ000580971-1], the ML-2 %inh with ML-2 is listed as -1.151%. In addition, the MV4-11 %inh in the experiment on MV4-11 was determined as 3.201%. Besides, the CHRF288-11 %inh with CHRF288-11 was 4.115%. In addition, the MOLM-13 %inh in the experiment on MOLM-13 stood at 3.693%. Besides, the CMS %inh in the experiment on CMS is given as -1.762%. Moreover, the M07e %inh in the experiment on M07e was found to be 0.06396%. Further, in the experiment with CMK, the CMK %inh was determined as 4.061%. The U937 %inh with U937 is given as 1.382%.

With `CCc1nccc2c1nc(-c1nonc1N)n2CC` [SJ000573228-1, DW100508-159A1], in the experiment with ML-2, the ML-2 %inh turned out to be 3.812%. Also, the MV4-11 %inh with MV4-11 is on record as 4.392%. Moreover, the CHRF288-11 %inh in the experiment with CHRF288-11 came to 7.841%. Further, the MOLM-13 %inh in the experiment on MOLM-13 came out at 4.708%. Moreover, the CMS %inh in the experiment with CMS is -0.9805%. For the same compound, the M07e %inh in the experiment on M07e was -1.816%. In the experiment with CMK, the CMK %inh turned out to be 3.989%. In the experiment on U937, the U937 %inh is 6.241%.

As to `NS(=O)(=O)c1cc2c(cc1Cl)NC(C1CC3C=CC1C3)NS2(=O)=O` (centres unmarked) [SJ000287770-4, CYCLOTHIAZIDE], in the experiment on ML-2, the ML-2 %inh turned out to be 0.8137%. The MV4-11 %inh in the experiment on MV4-11 is recorded as 2.178%. In addition, in the experiment with CHRF288-11, the CHRF288-11 %inh is given as -0.8826%. Further, the MOLM-13 %inh in the experiment with MOLM-13 was determined as 4.774%. In addition, the CMS %inh in the experiment with CMS turned out to be 2.052%. In addition, in the experiment on M07e, the M07e %inh is given as -1.741%. Also, the CMK %inh with CMK was 4.526%. Moreover, the U937 %inh in the experiment on U937 is 3.095%.

`NC(=O)Cc1ccccc1Oc1nccc(-c2c(-c3ccc(F)cc3)ncn2C2CCNCC2)n1` [SJ000573021-1, JB27143-130B1]: the ML-2 %inh in the experiment on ML-2 is 0.1798%. For the same compound, in the experiment on MV4-11, the MV4-11 %inh is on record as -0.3846%. Moreover, the CHRF288-11 %inh in the experiment with CHRF288-11 was found to be 2.665%. For the same compound, the MOLM-13 %inh in the experiment with MOLM-13 is recorded as -3.279%. Further, in the experiment with CMS, the CMS %inh was determined as 1.576%. In addition, the M07e %inh in the experiment on M07e is on record as -2.017%. In addition, in the experiment with CMK, the CMK %inh is listed as -8.193%. In addition, the U937 %inh in the experiment with U937 is -0.5311%.

Consider `CS(=O)(=O)CCNCc1ccc(-c2ccc3ncnc(Nc4ccc(OCc5cccc(F)c5)c(C(F)(F)F)c4)c3c2)o1` [SJ000573152-1, U14859/108/1], for which the ML-2 %inh in the experiment on ML-2 was found to be 2.813%. Also, the MV4-11 %inh in the experiment on MV4-11 worked out at 3.001%. Also, the CHRF288-11 %inh with CHRF288-11 is given as 2.26%. For the same compound, the MOLM-13 %inh with MOLM-13 was found to be 2.035%. The CMS %inh in the experiment on CMS is -1.451%. The M07e %inh with M07e came to 0.4672%. Besides, the CMK %inh in the experiment with CMK is reported as -0.9918%. Also, the U937 %inh with U937 is 2.673%.

In the case of `CC1(C)O[C@@H]2C[C@H]3[C@@H]4C[C@H](F)C5=CC(=O)CC[C@]5(C)[C@H]4[C@@H](O)C[C@]3(C)[C@]2(C(=O)CO)O1` [SJ000287138-3, FLURANDRENOLIDE], the ML-2 %inh in the experiment on ML-2 is -1.728%. Also, the MV4-11 %inh with MV4-11 is -1.501%. The CHRF288-11 %inh in the experiment with CHRF288-11 was determined as 7.802%. Besides, in the experiment with MOLM-13, the MOLM-13 %inh is reported as -1.421%. For the same compound, the CMS %inh in the experiment on CMS was 0.1237%. The M07e %inh in the experiment with M07e is recorded as -0.6056%. Also, in the experiment with CMK, the CMK %inh was -0.8734%. Further, the U937 %inh in the experiment with U937 amounted to 5.849%.

For the compound `Fc1ccc(-c2ncn(C3CCNCC3)c2-c2ccnc(Oc3ccc4c(c3)OCO4)n2)cc1` [SJ000573123-1, JB27026-196B1], the ML-2 %inh with ML-2 is listed as 3.564%. Besides, the MV4-11 %inh in the experiment on MV4-11 was found to be 0.1546%. The CHRF288-11 %inh in the experiment on CHRF288-11 is 7.293%. The MOLM-13 %inh in the experiment with MOLM-13 is on record as 2.344%. Further, the CMS %inh with CMS is reported as 0.7899%. Moreover, the M07e %inh with M07e was found to be 3.354%. For the same compound, in the experiment on CMK, the CMK %inh was determined as 13.54%. Also, in the experiment on U937, the U937 %inh is listed as 5.059%.

`COc1cc2c(cc1Nc1nc(Nc3ccsc3C(N)=O)c3cc[nH]c3n1)N(C(=O)CN(C)C)CCC2` [SJ000573044-1, N3343-60-3]: in the experiment with ML-2, the ML-2 %inh amounted to 41.91%. For the same compound, in the experiment with MV4-11, the MV4-11 %inh is given as 66.76%. Moreover, the CHRF288-11 %inh in the experiment on CHRF288-11 is 98.1%. Also, the MOLM-13 %inh in the experiment on MOLM-13 is 89.42%. The CMS %inh in the experiment on CMS is recorded as 65.93%. Also, in the experiment on M07e, the M07e %inh came to 106%. The CMK %inh with CMK came out at 100.5%. Besides, the U937 %inh in the experiment with U937 is recorded as 74.84%.

`CNC(=O)c1sc(-n2cnc3cc(OC)c(OC)cc32)cc1OCc1ccccc1C(F)(F)F` [SJ000573306-1, U22436/130/1]: in the experiment with ML-2, the ML-2 %inh is given as 3.023%. Besides, the MV4-11 %inh with MV4-11 stood at 7.836%. Moreover, the CHRF288-11 %inh in the experiment on CHRF288-11 came out at 8.101%. Besides, the MOLM-13 %inh in the experiment with MOLM-13 is recorded as 15.4%. In addition, in the experiment with CMS, the CMS %inh is on record as 0.3871%. Also, in the experiment on M07e, the M07e %inh is reported as -3.893%. Further, in the experiment on CMK, the CMK %inh came to 19.06%. The U937 %inh in the experiment with U937 stood at 5.347%.

Regarding `O=C(N/N=C/c1coc2ccccc2c1=O)c1cccnc1` [SJ000773164-1, STAT5 INHIBITOR], the ML-2 %inh with ML-2 is given as 0.5689%. The MV4-11 %inh in the experiment with MV4-11 is 5.196%. Further, the CHRF288-11 %inh in the experiment on CHRF288-11 turned out to be 2.609%. For the same compound, the MOLM-13 %inh in the experiment on MOLM-13 is on record as 0.6226%. Further, the CMS %inh in the experiment with CMS was -3.081%. In addition, in the experiment on M07e, the M07e %inh is -2.508%. Also, the CMK %inh with CMK is recorded as 0.4302%. The U937 %inh in the experiment with U937 is reported as 1.718%.

On to `CC(C)C(=O)OCC(=O)[C@@]12O[C@H](C3CCCCC3)O[C@@H]1C[C@H]1[C@@H]3CCC4=CC(=O)C=C[C@]4(C)[C@H]3[C@@H](O)C[C@@]12C` [SJ000565158-1, CICLESONIDE], for which the ML-2 %inh in the experiment on ML-2 (ML-2 %inh, 10 µM) was -1.054%. Moreover, in the experiment on MV4-11 (MV4-11 %inh, 10 µM), the MV4-11 %inh is -5.442%. The CHRF288-11 %inh in the experiment on CHRF288-11 (CHRF288-11 %inh, 10 µM) amounted to 0.4753%. Besides, in the experiment with MOLM-13 (MOLM-13 %inh, 10 µM), the MOLM-13 %inh was 4.252%. Further, the CMS %inh in the experiment with CMS (CMS %inh, 10 µM) is listed as -0.07433%. Also, the M07e %inh in the experiment on M07e (M07e %inh, 10 µM) was -1.566%. The CMK %inh with CMK (CMK %inh, 10 µM) worked out at 2.034%. Besides, the U937 %inh with U937 (U937 %inh, 10 µM) is recorded as -2.58%.

In the case of `Cc1cc(C)c2c(n1)sc1c(N)ncnc12` [SJ000581012-1], the ML-2 %inh in the experiment with ML-2 is reported as -0.0326%. Moreover, the MV4-11 %inh with MV4-11 is -4.498%. For the same compound, the CHRF288-11 %inh with CHRF288-11 came out at 1.655%. For the same compound, the MOLM-13 %inh with MOLM-13 is recorded as -1.383%. Besides, in the experiment on CMS, the CMS %inh was found to be 2.019%. In addition, the M07e %inh with M07e is given as -1.463%. Moreover, the CMK %inh in the experiment with CMK is -2.956%. For the same compound, the U937 %inh in the experiment with U937 came out at 3.328%.

Turning to `OC[C@H]1O[C@@H](O[C@@H]2[C@@H](CO)OC(O)(CO)[C@H]2O)[C@H](O)[C@@H](O)[C@H]1O` (mixture of isomers) [SJ000285579-4, LACTULOSE], the ML-2 %inh in the experiment with ML-2 (ML-2 %inh, 10 µM) was -0.9858%. Also, in the experiment with MV4-11 (MV4-11 %inh, 10 µM), the MV4-11 %inh is listed as 2.037%. In addition, the CHRF288-11 %inh with CHRF288-11 (CHRF288-11 %inh, 10 µM) came to 2.769%. The MOLM-13 %inh in the experiment with MOLM-13 (MOLM-13 %inh, 10 µM) was determined as 5.87%. Besides, in the experiment with CMS (CMS %inh, 10 µM), the CMS %inh is recorded as -0.8505%. Moreover, the M07e %inh with M07e (M07e %inh, 10 µM) stood at 8.809%. Further, the CMK %inh with CMK (CMK %inh, 10 µM) worked out at 0.6173%. The U937 %inh in the experiment on U937 (U937 %inh, 10 µM) came out at 1.171%.

Take `O=C(O)c1cc2cc(O)c(O)cc2c(C(=O)c2ccc(O)c(O)c2)n1` [SJ000773184-1, NBI-31772]: the ML-2 %inh in the experiment with ML-2 worked out at 4.963%. Besides, in the experiment on MV4-11, the MV4-11 %inh is recorded as 0.9533%. The CHRF288-11 %inh in the experiment on CHRF288-11 was -3.882%. Further, the MOLM-13 %inh in the experiment on MOLM-13 is 2.784%. Further, the CMS %inh in the experiment with CMS came to 0.1786%. In addition, the M07e %inh in the experiment on M07e is listed as 0.05281%. The CMK %inh in the experiment with CMK is given as 20.66%. In the experiment with U937, the U937 %inh is recorded as 2.592%.

Turning to `CS(=O)(=O)CCCn1c(=O)c(Oc2ccc(F)cc2F)cc2cnc(NC3CCOCC3)nc21` [SJ000581074-1], the ML-2 %inh with ML-2 is given as 1.736%. Further, the MV4-11 %inh in the experiment with MV4-11 is -0.6859%. The CHRF288-11 %inh in the experiment with CHRF288-11 came to 5.377%. For the same compound, the MOLM-13 %inh with MOLM-13 is listed as -2.241%. For the same compound, in the experiment on CMS, the CMS %inh is reported as -2.642%. Also, the M07e %inh with M07e is 4.622%. Further, the CMK %inh in the experiment with CMK is listed as -0.8153%. Further, the U937 %inh in the experiment with U937 was determined as 1.649%.

For `CC(C)(O)Cn1c(=O)c(Oc2ccc(F)cc2F)cc2cnc(NC3CCOCC3)nc21` [SJ000581116-1], the ML-2 %inh in the experiment with ML-2 is given as 0.2616%. In the experiment with MV4-11, the MV4-11 %inh came out at 2.584%. Also, the CHRF288-11 %inh in the experiment with CHRF288-11 is -0.4946%. In addition, the MOLM-13 %inh with MOLM-13 turned out to be 1.601%. Further, in the experiment with CMS, the CMS %inh is listed as -1.939%. Besides, the M07e %inh with M07e is 10.58%. For the same compound, in the experiment on CMK, the CMK %inh is listed as 6.636%. In addition, the U937 %inh in the experiment with U937 came to 1.398%.
